Data on 18 molecules can be found in patent US10508085B2, “Compounds and methods for IDO and TDO modulation, and indications therefor” (Plexxikon Inc., priority 2016, dated 2019).

Like-named read-outs stand apart in the source and are kept apart here.

The target of experiment [1] is T1, human IDO (IDO1-expressing HEK293 cells) (Homo sapiens, UniProt P14902).
T1 construct: expressed in transfected cells
Kind of experiment: Cell based kynurenine assay, IDO1-expressing HEK293 cell clones. The conditions noted are these: IDO1-expressing HEK293 cells, geometric mean, read-out: HEK293 IDO1 Kynurenine GMean IC50 (μM) (Cellular Assay). Summed up: (§1)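 Cellular IDO1 and TDO activity is followed as kynurenine released by stably transfected HEK293 clones over 24 h with test compound. Controls are DMSO-treated cells and media alone.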

The target of experiment [2] is T2, Human Tryptophan 2,3-dioxygenase (TDO) (Homo sapiens, UniProt P48775).
T2 construct: His tag (N); made in house; host or cells: E. coli
T2 sequence (P48775 whole entry): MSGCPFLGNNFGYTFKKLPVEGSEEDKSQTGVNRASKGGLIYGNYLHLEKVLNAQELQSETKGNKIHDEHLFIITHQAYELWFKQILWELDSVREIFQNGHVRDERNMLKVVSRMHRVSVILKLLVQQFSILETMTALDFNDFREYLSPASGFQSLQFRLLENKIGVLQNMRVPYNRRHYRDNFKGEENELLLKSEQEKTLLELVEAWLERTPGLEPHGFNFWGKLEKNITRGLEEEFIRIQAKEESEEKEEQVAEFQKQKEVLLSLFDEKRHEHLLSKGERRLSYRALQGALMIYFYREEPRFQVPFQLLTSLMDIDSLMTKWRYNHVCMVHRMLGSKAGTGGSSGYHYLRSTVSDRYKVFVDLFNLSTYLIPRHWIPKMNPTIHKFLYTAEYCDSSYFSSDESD
In words: Human TDO enzymatic assay (kynurenine level). Type of experiment: biochemical. To be noted: 1 nM TDO, 350 μM L-Trp; geometric mean; read-out: TDO GMean: IC50 (μM) (Biochemical Assay). Summed up:
(§2)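 N-His human IDO (6 nM, 10 μM L-Trp, 5 μM methylene blue, 20 min) or TDO (1 nM, 350 μM L-Trp, 0.4 μM methylene blue, 70 min) run at room temp in pH 6.5 phosphate with ascorbate, catalase, Tween 20. TCA stop, 30 min 50 °C converts N-formylkynurenine to kynurenine; IC50 by nonlinear regression.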

The target in experiment [3] is T3, Human Indoleamine 2,3-dioxygenase (IDO) (Homo sapiens, UniProt P14902).
T3 construct: His tag (N); made in house; host or cells: E. coli
T3 sequence (P14902 whole entry): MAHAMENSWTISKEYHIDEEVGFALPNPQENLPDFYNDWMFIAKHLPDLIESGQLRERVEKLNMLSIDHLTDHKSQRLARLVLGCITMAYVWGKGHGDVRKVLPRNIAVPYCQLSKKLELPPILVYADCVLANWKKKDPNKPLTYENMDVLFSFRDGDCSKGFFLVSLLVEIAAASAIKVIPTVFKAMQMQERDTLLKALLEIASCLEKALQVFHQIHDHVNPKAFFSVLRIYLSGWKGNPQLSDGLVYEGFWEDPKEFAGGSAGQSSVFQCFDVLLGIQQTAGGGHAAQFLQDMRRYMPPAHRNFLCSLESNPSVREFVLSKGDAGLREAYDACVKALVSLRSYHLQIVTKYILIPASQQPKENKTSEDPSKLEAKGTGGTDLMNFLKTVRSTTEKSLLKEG
Kind of experiment: Human IDO enzymatic assay (kynurenine level). To be noted: 6 nM IDO, 10 μM L-Trp; geometric mean; read-out: IDO1 GMean: IC50 (μM) (Biochemical Assay). Type of experiment: biochemical. Put shortly: as §2

In experiment [4] the target is T4, human TDO (TDO-expressing HEK293 cells) (Homo sapiens, UniProt P48775).
T4 construct: expressed in transfected cells
T4 sequence (P48775 whole entry): as the sequence (P48775 whole entry) above
Kind of experiment: Cell based kynurenine assay, TDO-expressing HEK293 cell clones. The conditions noted are these: TDO-expressing HEK293 cells, geometric mean, read-out: HEK293 TDO Kynurenine GMean IC50 (μM) (Cellular Assay). Summed up: as §1

T1 sequence (P14902 whole entry): as the sequence (P14902 whole entry) above

Usually IC50 stands for the point on the concentration scale where inhibition reaches its midpoint. For the molecule `CC1(C(O)c2cc(Cl)cc3cn[nH]c23)CCN(S(C)(=O)=O)CC1` (stereo not drawn) [Compound P-0286, (5-chloro-1H-indazol-7-yl)(4-methyl-1-(methylsulfonyl)piperidin-4-yl)methanol], the IC50 in experiment [1] (24 hours incubation), in experiment [2], in experiment [3] and in experiment [4] (24 hours incubation) was 0.0001 to 10 µM each time.

Turning to `CCNC(=O)N1CCC(C(C)(C)[C@H](O)c2cc(Cl)cc3cn[nH]c23)CC1` [Compound P-0550, (S)-4-(1-(5-chloro-1H-indazol-7-yl)-1-hydroxy-2-methylpropan-2-yl)-N-ethylpiperidine-1-carboxamide], the IC50 in experiment [1] (24 hours), in experiment [2], in experiment [3] and in experiment [4] (24 hours) was 0.0001 to 10 µM each time.

In the case of `CC(C)(C1CCN(C(=O)CC#N)CC1)C(O)c1cc(Cl)cc2cn[nH]c12` (stereo not drawn) [Compound P-0454, 3-(4-(1-(5-chloro-1H-indazol-7-yl)-1-hydroxy-2-methylpropan-2-yl)piperidin-1-yl)-3-oxopropanenitrile], the IC50 in experiment [1] (24 hours), in experiment [2], in experiment [3] and in experiment [4] (24 hours) was 0.0001 to 10 µM throughout.

As to `CNC(=O)N1CCC(C(C)(C)[C@H](O)c2c(F)c(Cl)cc3cn[nH]c23)CC1` [Compound P-0508, (S)-4-(1-(5-chloro-6-fluoro-1H-indazol-7-yl)-1-hydroxy-2-methylpropan-2-yl)-N-methylpiperidine-1-carboxamide], the IC50 in experiment [1] (24 hours), in experiment [2], in experiment [3] and in experiment [4] (24 hours) was 0.0001 to 10 µM throughout.

Regarding `CC(C)(C1CCN(C(=O)CC(F)(F)F)CC1)C(O)c1cc(Cl)cc2cn[nH]c12` (stereo not drawn) [Compound P-0459, 1-(4-(1-(5-chloro-1H-indazol-7-yl)-1-hydroxy-2-methylpropan-2-yl)piperidin-1-yl)-3,3,3-trifluoropropan-1-one], the IC50 in experiment [1] (24 hours), in experiment [2], in experiment [3] and in experiment [4] (24 hours) was 0.0001 to 10 µM in each case.

On to `OC(c1cc(Cl)cc2cn[nH]c12)C1CCCCC1` (stereo not drawn) [Compound P-0002, (5-chloro-1H-indazol-7-yl)(cyclohexyl)methanol], for which the IC50 in experiment [1] (24 hours incubation), in experiment [2], in experiment [3] and in experiment [4] (24 hours incubation) was 0.0001 to 10 µM in each case.

`CC(C)(C)OC(=O)N1CCC(C(C)(C)[C@H](O)c2cc(Cl)cc3cn[nH]c23)CC1` [Compound P-0337, tert-butyl (S)-4-(1-(5-chloro-1H-indazol-7-yl)-1-hydroxy-2-methylpropan-2-yl)piperidine-1-carboxylate]: the IC50 in experiment [1] (24 hours incubation), in experiment [2], in experiment [3] and in experiment [4] (24 hours incubation) was 0.0001 to 10 µM each time.

As to `O=C(O)C12CCC(C(O)c3cc(Cl)cc4cn[nH]c34)(CC1)CC2` (stereo not drawn) [Compound P-0327, 4-((5-chloro-1H-indazol-7-yl)(hydroxy)methyl)bicyclo [2.2.2]octane-1-carboxylic acid], the IC50 in experiment [1] (24 hours incubation), in experiment [2], in experiment [3] and in experiment [4] (24 hours incubation) was 0.0001 to 10 µM in each case.

In the case of `COCCCNC(=O)N1CCC(C(C)(C)C(O)c2cc(Cl)cc3cn[nH]c23)CC1` (stereo not drawn) [Compound P-0357, 4-(1-(5-chloro-1H-indazol-7-yl)-1-hydroxy-2-methyipropan-2-yl)-N-(3-methoxypropyl) piperidine-1-carboxamide], the IC50 in experiment [1] (24 hours incubation), in experiment [2], in experiment [3] and in experiment [4] (24 hours incubation) was 0.0001 to 10 µM in each case.

On to `OC(c1c2c(cc3cn[nH]c13)CC2)C12CCC(CC1)CC2` (stereo not drawn) [Compound P-0279, bicyclo[2.2.2]octan-1-yl(5,6-dihydro-1H-cyclobuta[f]indazol-7-yl)methanol], for which the IC50 in experiment [1] (24 hours incubation) was 0.0001 to 10 µM; in experiment [2] it was 0.0001 to 10 µM; in experiment [3] it was 0.0001 to 10 µM; in experiment [4] (24 hours incubation) it was more than 10 µM.

With `NC(=O)N1CCC(C(F)(F)C(O)c2cc(Cl)cc3cn[nH]c23)CC1` (stereo not drawn) [Compound P-0144, 4-(2-(5-chloro-1H-indazol-7-yl)-1,1-difluoro-2-hydroxyethyl)piperidine-1-carboxamide], the IC50 in experiment [1] (24 hours incubation), in experiment [2], in experiment [3] and in experiment [4] (24 hours incubation) was 0.0001 to 10 µM each time.

Consider `NC(=O)N1CCC(C2(C(O)c3c(F)c(Cl)cc4cn[nH]c34)CC2)CC1` (stereo not drawn) [Compound P-0161, 4-(1-((5-chloro-6-fluoro-1H-indazol-7-yl)(hydroxy)methyl)cyclopropyl)piperidine-1-carboxamide], for which the IC50 in experiment [1] (24 hours incubation), in experiment [2], in experiment [3] and in experiment [4] (24 hours incubation) was 0.0001 to 10 µM throughout.

Take `CC(C)(C1CCN(C(=O)Nc2ccccc2Cl)CC1)C(O)c1cc(Cl)cc2cn[nH]c12` (stereo not drawn) [Compound P-0184, 4-(1-(5-chloro-1H-indazol-7-yl)-1-hydroxy-2-methylpropan-2-yl)-N-(2-chlorophenyl)piperidine-1-carboxamide]: the IC50 in experiment [1] (24 hours incubation), in experiment [2], in experiment [3] and in experiment [4] (24 hours incubation) was 0.0001 to 10 µM throughout.

`C[C@@H](NC(=O)N1CCC(C(C)(C)C(O)c2cc(Cl)cc3cn[nH]c23)CC1)c1ccccc1` (stereo partly drawn) [Compound P-0373, 4-(1-(5-chloro-1H-indazol-7-yl)-1-hydroxy-2-methylpropan-2-yl)-N-((R)-1-phenylethyl) piperidine-1-carboxamide]: the half-maximal inhibitory concentration (IC50) in experiment [1] (24 hours incubation), in experiment [2], in experiment [3] and in experiment [4] (24 hours incubation) was 0.0001 to 10 µM in each case.

As for `O=C(NCC1COC1)N1CCC(C(F)(F)C(O)c2cc(Cl)cc3cn[nH]c23)CC1` (stereo not drawn) [Compound P-0482, 4-(2-(5-chloro-1H-indazol-7-yl)-1,1-difluoro-2-hydroxyethyl)-N-(oxetan-3-ylmethyl)piperidine-1-carboxamide], the IC50 in experiment [1] (24 hours), in experiment [2], in experiment [3] and in experiment [4] (24 hours) was 0.0001 to 10 µM each time.

For `COCCNC(=O)N1CCC(C(C)(C)[C@H](O)c2c(F)c(Cl)cc3cn[nH]c23)CC1` [Compound P-0510, (S)-4-(1-(5-chloro-6-fluoro-1H-indazol-7-yl)-1-hydroxy-2-methylpropan-2-yl)-N-(2-methoxyethyl) piperidine-1-carboxamide], the IC50 in experiment [1] (24 hours), in experiment [2], in experiment [3] and in experiment [4] (24 hours) was 0.0001 to 10 µM throughout.

On to `COc1ccc(NC(=O)N2CCC(C(C)(C)C(O)c3cc(Cl)cc4cn[nH]c34)CC2)cc1` (stereo not drawn) [Compound P-0183, 4-(1-(5-chloro-1H-indazol-7-yl)-1-hydroxy-2-methylpropan-2-yl)-N-(4-methoxyphenyl)piperidine-1-carboxamide], for which the IC50 in experiment [1] (24 hours incubation), in experiment [2], in experiment [3] and in experiment [4] (24 hours incubation) was 0.0001 to 10 µM in each case.

Take `CS(=O)(=O)N1CCC2(CC1)CC(O)(c1cc(Cl)cc3cn[nH]c13)C2` [Compound P-0034, 2-(5-chloro-1H-indazol-7-yl)-7-(methylsulfonyl)-7-azaspiro[3.5]nonan-2-ol]: the IC50 in experiment [1] (24 hours incubation), in experiment [2], in experiment [3] and in experiment [4] (24 hours incubation) was 0.0001 to 10 µM throughout.
